The experiment concerns the target Metabotropic glutamate receptor 2 (Rattus norvegicus) (UniProt P31421). In words: rat mGlu2 allosteric modulation, SAR follow-up, selectivity assay for mGlu4 PAM project, cell-based, thallium flux, glutamate fold shift (AID 623878). The following applies: rat mGlu2 cells, at 10 µM.

Active and inactive are the calls of the source.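 How the source made its calls: active means glutamate fold shift at least 2 as enhancer, or at most 0.5 as blocker, actives on both sides; inactive means the rest.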

Metabotropic glutamate receptor 2 (Rattus norvegicus), sequence (P31421 whole entry, looked up): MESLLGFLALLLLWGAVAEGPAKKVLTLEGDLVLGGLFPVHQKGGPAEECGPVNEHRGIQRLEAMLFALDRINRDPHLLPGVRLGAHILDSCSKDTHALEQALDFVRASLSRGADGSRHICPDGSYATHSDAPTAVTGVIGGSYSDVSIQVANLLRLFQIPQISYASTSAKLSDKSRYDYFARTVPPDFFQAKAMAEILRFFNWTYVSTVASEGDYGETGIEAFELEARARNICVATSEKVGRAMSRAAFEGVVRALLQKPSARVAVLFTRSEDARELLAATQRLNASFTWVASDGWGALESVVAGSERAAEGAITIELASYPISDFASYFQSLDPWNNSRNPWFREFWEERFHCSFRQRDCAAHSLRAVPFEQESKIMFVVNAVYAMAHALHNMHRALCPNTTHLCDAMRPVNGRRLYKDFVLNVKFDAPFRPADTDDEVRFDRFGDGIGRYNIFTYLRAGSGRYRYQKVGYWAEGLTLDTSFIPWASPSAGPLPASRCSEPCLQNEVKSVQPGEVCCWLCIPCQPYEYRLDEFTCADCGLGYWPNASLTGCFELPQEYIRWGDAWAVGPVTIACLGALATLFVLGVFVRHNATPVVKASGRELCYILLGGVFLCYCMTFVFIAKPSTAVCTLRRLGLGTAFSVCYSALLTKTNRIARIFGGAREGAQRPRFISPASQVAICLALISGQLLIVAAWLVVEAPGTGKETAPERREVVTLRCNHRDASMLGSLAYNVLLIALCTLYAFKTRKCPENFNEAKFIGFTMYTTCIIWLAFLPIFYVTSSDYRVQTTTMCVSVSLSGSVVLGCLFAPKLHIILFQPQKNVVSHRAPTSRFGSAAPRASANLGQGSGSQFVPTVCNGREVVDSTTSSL

Turning to `O=C(Nc1cccc(Cl)c1)c1ccccn1`, the fold shift was 0.98 (inactive).
